Assay results as given in ChEMBL document CHEMBL1201862, “PubChem BioAssay data set” (2004).
Values belong to the molecule of their own block, whether it stands above or below them. Activity calls are given as the source filed them.

How the values were obtained:
Candida albicans [1] = experiment: reversal of fluconazole resistance in C. albicans, dose response, CaCi-2 strain, Alamar Blue, dry powder, set 3 (AID 488907); type: functional, organism-based
Candida albicans [2] = experiment: growth inhibition of azole-resistant C. albicans, dose response, CaCi-8 strain, Alamar Blue, dry powder, set 3 (AID 488905); type: functional, organism-based
[3] = target: ATP-dependent molecular chaperone HSP82 (Candida albicans (strain WO-1) (Yeast), UniProt C4YTQ8); experiment: loss of DOC-induced GRE-beta-galactosidase reporter signal, dose response, Hsp90 inhibitor project, S. cerevisiae, luminescence (AID 2400); type: functional, cell-based;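 also: beta-galactosidase luminescence from glucocorticoid response element reporter as proxy for Hsp90 function; inhibitor potency where signal loss means Hsp90 inhibition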
[4] = target: T1, Ubiquitin-conjugating enzyme E2 N (Homo sapiens, UniProt P61088); type: functional
T1 sequence (P61088 whole entry): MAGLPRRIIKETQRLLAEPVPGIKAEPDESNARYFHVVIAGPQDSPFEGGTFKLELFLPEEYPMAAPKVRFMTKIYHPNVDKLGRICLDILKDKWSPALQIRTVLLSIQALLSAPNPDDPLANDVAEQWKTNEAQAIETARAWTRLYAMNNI

[5] = target: Serine/threonine-protein phosphatase (Candida dubliniensis (strain CD36 / CBS 7987 / NCPF 3949 / NRRLY-17841) (Yeast), UniProt B9W6M3); experiment: calcineurin pathway inhibitors in yeast reporter, dose response, S. cerevisiae, CDRE-lacZ, luminescence, secondary (AID 2388); type: functional, cell-based;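 also: yeast reporter cells carrying a calcineurin-responsive lacZ construct stimulated with calcium chloride; luminescent beta-galactosidase reporter signal in whole cells rather than isolated phosphatase activity; potency for inhibition where a drop in reporter signal means calcineurin blockade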
Bcl-2-related protein A1 = target: T2, Bcl-2-related protein A1 (Mus musculus, UniProt Q07440); type: functional;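 also: confirmatory dose–response counterscreen on Bfl-1, used to check hits from a UBC13 polyubiquitin inhibitor campaign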
T2 sequence (Q07440 whole entry): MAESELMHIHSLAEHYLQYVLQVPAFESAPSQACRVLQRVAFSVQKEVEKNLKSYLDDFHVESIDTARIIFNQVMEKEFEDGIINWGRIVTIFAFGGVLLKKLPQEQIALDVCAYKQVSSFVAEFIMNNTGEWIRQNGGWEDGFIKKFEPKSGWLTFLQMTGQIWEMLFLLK

[6] = target: T1, Ubiquitin-conjugating enzyme E2 N; type: functional; remark: listed apart in the source
[7] = target: Cyclin-dependent kinase 2 (Homo sapiens, UniProt P24941); experiment: CDK2 kinase inhibitors, off-target check, dose response, selectivity assay for Dyrk1A inhibitor project, biochemical, cherry-picked samples (AID 602127)
[8] = target: Dual specificity protein kinase CLK1 (Homo sapiens, UniProt P49759); experiment: CLK1 kinase inhibitors, off-target check, dose response, selectivity assay for Dyrk1A inhibitor project, biochemical, cherry-picked samples (AID 588811)
Dual specificity protein kinase CLK1, sequence (P49759 whole entry): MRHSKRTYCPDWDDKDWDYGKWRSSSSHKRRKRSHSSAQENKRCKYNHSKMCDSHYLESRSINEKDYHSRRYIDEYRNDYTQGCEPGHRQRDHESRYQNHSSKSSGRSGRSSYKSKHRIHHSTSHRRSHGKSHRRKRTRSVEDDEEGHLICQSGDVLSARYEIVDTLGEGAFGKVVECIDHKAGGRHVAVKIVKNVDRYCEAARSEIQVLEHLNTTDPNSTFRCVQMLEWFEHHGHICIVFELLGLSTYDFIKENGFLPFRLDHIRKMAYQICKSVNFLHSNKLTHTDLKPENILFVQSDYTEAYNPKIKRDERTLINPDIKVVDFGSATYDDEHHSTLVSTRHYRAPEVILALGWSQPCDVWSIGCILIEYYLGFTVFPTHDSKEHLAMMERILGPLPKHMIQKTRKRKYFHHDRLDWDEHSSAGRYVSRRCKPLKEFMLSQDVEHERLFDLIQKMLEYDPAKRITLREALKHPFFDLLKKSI

ATP-dependent molecular chaperone HSP82, sequence (C4YTQ8 whole entry): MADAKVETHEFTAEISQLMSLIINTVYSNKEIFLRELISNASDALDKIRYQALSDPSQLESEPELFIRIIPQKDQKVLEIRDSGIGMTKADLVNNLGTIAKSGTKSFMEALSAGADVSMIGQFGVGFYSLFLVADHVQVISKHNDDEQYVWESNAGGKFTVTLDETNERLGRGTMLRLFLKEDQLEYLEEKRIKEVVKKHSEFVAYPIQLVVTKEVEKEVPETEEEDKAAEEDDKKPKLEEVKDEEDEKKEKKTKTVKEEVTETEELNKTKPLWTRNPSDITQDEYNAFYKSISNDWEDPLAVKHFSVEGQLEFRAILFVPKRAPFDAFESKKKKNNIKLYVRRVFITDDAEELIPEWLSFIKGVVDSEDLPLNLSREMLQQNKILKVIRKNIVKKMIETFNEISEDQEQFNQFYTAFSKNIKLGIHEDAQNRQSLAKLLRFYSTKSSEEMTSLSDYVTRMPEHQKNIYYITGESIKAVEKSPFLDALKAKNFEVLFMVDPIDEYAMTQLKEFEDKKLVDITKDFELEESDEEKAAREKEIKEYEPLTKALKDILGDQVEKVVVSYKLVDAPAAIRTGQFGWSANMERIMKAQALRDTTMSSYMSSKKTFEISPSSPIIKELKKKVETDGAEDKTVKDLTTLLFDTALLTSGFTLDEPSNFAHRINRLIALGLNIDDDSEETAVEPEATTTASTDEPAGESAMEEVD
Serine/threonine-protein phosphatase, sequence (B9W6M3 whole entry): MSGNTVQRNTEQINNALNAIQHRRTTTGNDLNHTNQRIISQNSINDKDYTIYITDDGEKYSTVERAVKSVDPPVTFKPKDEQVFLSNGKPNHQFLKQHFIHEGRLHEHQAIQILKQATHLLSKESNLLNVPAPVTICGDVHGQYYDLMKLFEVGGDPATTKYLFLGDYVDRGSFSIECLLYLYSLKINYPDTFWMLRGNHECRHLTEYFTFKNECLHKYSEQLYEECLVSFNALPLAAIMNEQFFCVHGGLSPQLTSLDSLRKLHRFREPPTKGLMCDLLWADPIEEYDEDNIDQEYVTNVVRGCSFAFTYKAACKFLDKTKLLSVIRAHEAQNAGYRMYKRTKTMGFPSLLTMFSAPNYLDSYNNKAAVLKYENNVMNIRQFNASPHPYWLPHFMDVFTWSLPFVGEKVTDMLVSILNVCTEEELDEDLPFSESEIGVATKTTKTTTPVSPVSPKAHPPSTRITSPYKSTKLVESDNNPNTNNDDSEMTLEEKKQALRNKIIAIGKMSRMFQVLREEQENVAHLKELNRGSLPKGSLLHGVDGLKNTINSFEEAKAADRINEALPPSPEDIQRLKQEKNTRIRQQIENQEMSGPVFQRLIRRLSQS

Structure (SMILES): Cc1ccc(C(=O)N2CCN(c3ccccn3)CC2)cc1
AC50 (Candida albicans [1]): 0.0979 µM (active)
AC50 (Candida albicans [2]): 10.4 µM (active)

EC50 [3]: 19.2 µM (active)
IC50 [4]: 9.98 µM (active)
EC50 [5]: > 180 µM (inactive)
IC50 (Bcl-2-related protein A1): > 20 µM (inactive)
IC50 [6]: > 20 µM (inactive)
Structure (SMILES): Fc1cccc(-n2cc(-c3ccccc3)c3c(=S)[nH]cnc32)c1

AC50 [7]: 3.52 µM (active)
AC50 [8]: 0.0402 µM (active)
Structure (SMILES): c1cncc(CNc2nccc(-c3ccc4[nH]ncc4c3)n2)c1
